# Legend:
# [1] = tested on: STAT, MAPK, NF-κB and PI3K/Akt signaling; assay: Western blotting of inflammatory signaling pathways in contused spinal cord; assay type: in vivo, C57BI/6 mice; settings: vs saline
# Description: (§1) All surgical procedures were approved by the Universitat Autònoma de Barcelona Animal Care Committee and followed the guidelines of the European Commission on Animal Care, and the methods for each procedure were carried out in accordance with the approved guidelines. 142 Adult (8 to 10 weeks old) female C57BI/6 mice (Charles River) were anesthetized with ketamine:xylazine (90:10 mg/kg). After performing a laminectomy at the 11th thoracic vertebrae, the exposed spinal cord was contused using the Infinite Horizon Impactor device (Precision Scientific Instrumentation, Lexington, Ky.). Injuries were made using a force of 60 kdynes and tissue displacement ranging between 500-700 μm as reported earlier (Coll-Miro et al., 2016).
# (§2) One hour after spinal cord injury, 1 μg of MaR1 (7S,14S-dihydroxy-4Z,8E,10E,12Z,16Z, 19Z-docosahexaenoic acid; Cayman Chemical) was injected intravenously in 100 μl of sterile saline, and then repeated daily thereafter until day 7. Control mice were injected with an equal volume of sterile saline following the same injection protocol. Precautions with regards to the handling of lipid mediators to prevent inactivity due to oxygenation were implemented. The MaR1 dosage was chosen accordingly to be above levels i) of approved MaR1 bioactivity in experimental disease models (Serhan et al., 2015) and ii) above SPM dosages sufficient to exert bioactivity in the CNS with intact and closed blood brain barrier (Marcheselli et al., 2003; Svensson et al., 2007).
# Samples used for Luminex assay, were also used to for western blotting. Protein samples (30 μg) were separated by electrophoresis on a 10-15% polyacrylamide gel and transferred onto PVDF membranes (Millipore). The membranes were incubated overnight at 4° C. with rabbit antibodies against phospho NF-kB p65 (1:1000; Cell Signaling), against the phosphorylated form of STAT1 (1:500; Cell Signaling), STAT3 (1:500; Cell Signaling), STAT5 (1:500; Cell Signaling) and STAT6 (1:500; Cell Signaling), JNK (1:500; Santa Cruz), ERK1/2 (1:1000; Cell Signaling), p38 (1:1000; Cell Signaling) and AKT (1:1000; Cell Signaling). Bands were detected using Chemiluminescence (Immobilon Western Chemiluminescence HRP reagent, Millipore) and data quantified by densitometry using Workflow v3 software in a Chemidoc apparatus (Millipore). ß-actin (1:10.000; Sigma Aldrich) was used to ensure equal loading of samples.
# [2] = tested on: spinal cord contusion injury; assay: Functional assessment of locomotor recovery after SCI (BMS, DigiGait, treadmill); assay type: in vivo, C57BI/6 mice
# Description: as §1, §2
# Locomotor recovery was evaluated at 1, 3, 5, 7, 10, 14, 21 and 28 dpi in an open-field test using the nine-point Basso Mouse Scale (BMS) (Basso et al., 2006), which was specifically developed for locomotor testing after contusion injuries in mice. The BMS analysis of hindlimb movements and coordination was performed by two independent assessors blinded for the treatment groups (MaR1 vs saline) and the consensus score taken. […] Moreover, the highest locomotion speed that each mouse was to able locomote for at least 5 seconds was also recorded on the DigiGait treadmill belt. […]
# [3] = tested on: neutrophils, macrophages and microglia in the contused spinal cord; assay: Flow cytometry of immune cell counts in contused spinal cord after MaR1 treatment; assay type: in vivo, C57BI/6 mice; settings: vs saline
# Description: as §1, §2
# (§3) Immune cells from the laminectomized and injured spinal cord were analyzed by flow cytometry at 1, 3, 7, 14, 21 and 28 days post-injury as described previously to study the dynamics of immune cell in spinal cord injury as described previously (Santos-Nogueira et al., 2015; Coll-Miro et al., 2016; Francos-Quijorna et al., 2016). Similarly, spinal cord from mice treated with MaR1 or saline were also harvested at day 1, 3 and 7 post-lesion. Briefly, spinal cords were cut in little pieces and passed through a cell strainer of 70 μm (BD falcon) and the cell suspension was centrifuged twice at 300 g for 10 minutes at 4° C. After cell counts, samples were divided, and cells alone and isotype-matched control samples were generated to control for nonspecific binding of antibodies and for auto-fluorescence. The following antibodies from eBioscience were used at 1:250 concentration: CD45-PerCP, CD11b-PE-Cy7, Ly6C-FITC, Ly6G-PE, Gr1-FITC, F4/80-APC or PE, CD3-FITC, CD4-APC, CD8-APC, CD19-PE, CD206-FITC, CD16/32-PE. After 30 min of incubation with combinations of antibodies at 4° C., cells were then fixed in 1% paraformaldehyde. For intracellular staining, cells were permeabilized with Permeabilization Wash Buffer (Biolegend), incubated with unconjugated rabbit antibodies against iNOS (1:200 Abcam), and goat antibodies against Arg1 (1:200; Santa Cruz) for 30 minutes, followed by staining with Alexa488 or Alexa647 conjugated donkey secondary antibodies against rabbit or goat (1:500 Molecular Probes) for 30 min. Finally, samples were washed and fixed in 1% paraformaldehyde. To perform the analysis, cells were first gated for CD45 to ensure that only infiltrating leukocytes and resident microglia are selected. Then, the following combination of markers were used to identify: microglia (CD45^low, CD11b^+, F4/80^+); macrophages (CD45^high, CD11b^+, F4/80^+); neutrophils (CD45^high, CD11b^+, F4/80^−, Gr1^high); CD4 T-Cells (CD45^+, CD11b^−, CD3^+, CD4^+); CD8 T Cells (CD45^+, CD11b, CD3^+, CD8^+); B cell (CD45^+, CD11b^−, CD3^−, CD19^+). To study the phenotype of microglia and macrophages, these cells were further differentiated based on Ly6C, CD16/32, iNOS, CD206 and Arg1 expression (Coll-Miro et al., 2016; Francos-Quijorna et al., 2016). Analysis of inflammatory cell kinetics at the lesion site was conducted applying objective and quantifiable measures of resolution dynamics as described previously (Pruss et al., 2011). […]
# [4] = tested on: spinal cord contusion injury; assay: Histology of secondary tissue damage after SCI; assay type: in vivo, C57BI/6 mice; settings: 28 days post-injury, vs saline
# Description: as §1, §2
# At 28 days post-injury, mice were perfused with 4% paraformaldehyde in 0.1M-phosphate buffer (PB). A 5 mm length of spinal cord containing the lesion site was removed, cryoprotected with 30% sucrose in 0.1M PB at 4° C., and 10 series of 10 μm thick section were picked up on glass slides. Adjacent sections on the same slide were therefore 100 μm apart. For quantification of myelin area content in the spinal cord analyses, sections were stained with Luxol Fast Blue (Sigma). […]
# The epicenter of the injection or contusion injury impact was determined for each mouse spinal cord by localizing the tissue section with the greatest damage using LFB stained section. Myelin content after SCI was calculated by delineating the are of LFB stained tissue. Neuronal survival was assessed by counting the number of NeuN^+ cells in the ventral horns at the injury epicenter and at rostral and caudal areas. Axonal sparing was calculated by counting the number of axons in the dorsal column at the injury epicenter, the region of most pronounced damage. […] All quantifications were performed blinded to the experimental groups with the help of the ImageJ image analysis software.
# [5] = tested on: macrophages and microglia (Ly6C, iNOS, Arg1); assay: Flow cytometry of macrophage and microglia phenotype after SCI; assay type: in vivo, C57BI/6 mice
# Description: as §1, §2, §3
# [6] = tested on: cytokines and chemokines in the contused spinal cord; assay: Cytokine protein expression in contused spinal cord (Luminex); assay type: in vivo, C57BI/6 mice
# Description: as §1, §2
# Mice treated with saline or MaR1 were perfused with sterile saline and a 5 mm length of spinal cord centered on the lesion was collected at 12 and 24 h after contusion injury and snap-frozen. Spinal cords were homogenized and protein concentration was determined using the DC Protein Assay (Bio-Rad). Samples were concentrated to 4 μg/μl using MicroCon centrifugation filters (Millipore) to ensure equal amounts of protein. Low concentrations of cytokines in the sample result in binding to the filters whereas high concentrations of protein sustain less losses. The protein levels of 32 cytokines and chemokines were then analyzed using the Milliplex MAP Mouse Cytokine/Chemokine magnetic bead panel (Millipore) on a Luminex (Millipore) as per manufacturers' protocol (Francos-Quijorna et al., 2016).
# [7] = tested on: macrophages (CD45high, CD11b+, F4/80+); assay: Efferocytosis: neutrophil marker Ly6G inside macrophages after SCI; assay type: in vivo, C57BI/6 mice; settings: 7 days post-lesion; vs saline
# Description: as §1, with “Injuries were made using a force of 60 kdynes and tissue displacement ranging between 500-700 μm as reported earlier (Coll-Miro et al., 2016).” left out
# Immune cells from the laminectomized and injured spinal cord were analyzed by flow cytometry at 1, 3, 7, 14, 21 and 28 days post-injury as described previously to study the dynamics of immune cell in spinal cord injury as described previously (Santos-Nogueira et al., 2015; Coll-Miro et al., 2016; Francos-Quijorna et al., 2016). […] After cell counts, samples were divided, and cells alone and isotype-matched control samples were generated to control for nonspecific binding of antibodies and for auto-fluorescence. […] Analysis of inflammatory cell kinetics at the lesion site was conducted applying objective and quantifiable measures of resolution dynamics as described previously (Pruss et al., 2011). […]
# human macrophages = settings: 1 nM concentration; cited from earlier work
# [8] = spinal cord tissue 24 hours after SCI
# [9] = contused spinal cord, 24 h after SCI, MaR1 1 μg i.v., mean ± SEM
smiles,measurement,setting,value
"CC/C=C\C/C=C\C[C@H](O)\C=C/C=C/C=C/[C@@H](O)C/C=C\CCC(=O)O [MaR1, 7S,14S-dihydroxy-4Z,8E,10E,12Z,16Z, 19Z-docosahexaenoic acid]",ERK1/2 activation,[1]; 24 hours post-injury,attenuated
same,JKN activation,[1]; 24 hours post-injury,remained unaltered
same,STAT1 activation,[1]; 24 hours post-injury,attenuated
same,STAT3 activation,[1]; 24 hours post-injury,attenuated
same,STAT5 activation,[1]; 24 hours post-injury,attenuated
same,STAT6 activation,[1]; 24 hours post-injury,remained unaltered
same,p38 activation,[1]; 24 hours post-injury,attenuated
same,pAkt level,[1]; [8],not affected
same,pP65 level,[1]; [8],not affected
same,BMS score,"[2]; 28 dpi, nine-point Basso Mouse Scale, 1 μg MaR1 i.v. daily until day 7",4.58±0.22
same,DigiGait gait symmetry and stance/width stepping variability,"[2]; day 28 post-injury, vs saline",improved
same,speed of locomotion on the treadmill,"[2]; day 28 post-injury, vs saline",significantly faster
same,clearance of neutrophils from the contused spinal cord (Ri and T50),[3]; 1 μg MaR1 i.v. daily for 7 days,accelerated
same,entrance of blood-borne macrophages into the contused spinal cord,[3]; day 1,not different
same,neutrophil counts in contused spinal cord,"[3]; day 1 post-injury, 1 μg MaR1 i.v. daily from 1 hour after SCI",unaltered
same,macrophage counts in the contused spinal cord,"[3]; day 3 post-injury, not significant",tended to be reduced
same,reduction of neutrophil counts in the injured spinal cord,"[3]; day 7, 1 μg MaR1 i.v. daily",~50%
same,macrophage accumulation in the lesioned spinal cord,[3]; day 7 post-lesion,significantly reduced
same,microglial numbers in the contused spinal cord,[3]; first week following contusion injury,did not attenuate
same,neuronal survival in the ventral horn,[4]; caudal regions to the injury epicenter,improved
same,myelin content (LFB),[4]; injury epicenter and 200 μm rostral and caudal,increased
same,axonal sparing (NF+) in the dorsal columns,[4]; injury epicenter,enhanced
same,demyelination (NF/MBP+) in the dorsal columns,[4]; injury epicenter,reduced
same,percent of Ly6Chigh microglia,[5]; 7 days after SCI,10.6%±1.1
same,ratio LyC6low/LyC6high macrophages,"[5]; 7 days after SCI, p=0.0036 vs saline",3.73±0.26
same,reduction of pro-inflammatory macrophages (Ly6Chigh),"[5]; 7 days after SCI, vs saline",~50%
same,increase of Arg-1 expression in macrophages,"[5]; 7 days post injury, did not reach statistical significance",~2 fold
same,iNOS expression in microglia,"[5]; 7 days post injury, not statistically significant",tended to reduce
same,iNOS expression in macrophages,"[5]; 7 days post injury, vs saline",significantly reduced
same,protein levels of the anti inflammatory cytokine IL-10,"[6]; after SCI, vs saline",did not reduce
same,CCL3 protein level,[6]; [9],13.3 ± 1.18
same,CCL4 protein level,[6]; [9],17.7 ± 1.46
same,CSF3 protein level,[6]; [9],741 ± 118
same,CXCL1 protein level,[6]; [9],87.5 ± 21.3
same,CXCL2 protein level,[6]; [9],41.4 ± 7.50
same,IL-6 protein level,[6]; [9],291 ± 56.7
same,IL-4 protein levels,"[6]; injured spinal cord, both groups",undetected
same,increase of neutrophil marker Ly6G inside macrophages (neutrophil phagocytosis),[7],~2 fold
same,efferocytosis by human macrophages compared with RvD1,human macrophages,greater efferocytosis

# — patent US11583511B2, “Maresins for use in the treatment of CNS injuries” (UNIVERSITAT AUTONOMA DE BARCELONA, priority 2017, dated 2023)
